From article PMC4601023, “Novel anticancer agent, SQAP, binds to focal adhesion kinase and modulates its activity” (Scientific Reports, 2015)

How the values were obtained:
MFE-2 (598–736) = biological target: T1, MFE-2 (598–736) (Homo sapiens, UniProt P51659); test: SPR analysis, immobilized His-tagged MFE-2 (598-736); assay type: binding; conditions: Biacore 3000, CM5 chip, 25 °C, read-out: dissociation constant (KD) for MFE-2
T1 construct: For MFE-2 (598–736) DNA was amplified; made in house; host or cells: E. coli Rosetta 2 (DE3) pLysS
Source text: SPR was utilized as an independent confirmation of the kinetic parameters between SQAP and the putative binding proteins. […] The recombinant proteins were then expressed in Escherichia coli and purified to homogeneity. In addition, full length, His-tagged ADRM1 and GST-tagged HR23B (GST-HR23B) were also used. The proteins were first immobilized on a CM5 sensor chip of the SPR biosensor (Biacore 3000). For GST-HR23B analysis, a GST protein was additionally immobilized and used as a control in order to eliminate possible nonspecific binding of SQAP. SQAP samples at different concentrations were then injected over the proteins immobilized on the sensor chip. As a negative control we used sulfoquynovosylpropanediol (SQP), which lacks the fatty acid moiety of SQAP (Fig. 1). […]
The binding kinetics of SCP-2, MFE-2, ADRM1, HR23B and FAK with SQAP and SQP were analyzed on a Biacore 3000 instrument (GE Healthcare, Little Chalfont, UK). […] The buffer of purified peptides was exchanged to HBS-P (150 mM NaCl, 0.005% Surfactant P20, 10 mM HEPES-NaOH pH 7.4) using a PD 10 column (GE Healthcare, Little Chalfont, UK) and the concentrations were quantified using DC protein assay kit (Bio-Rad Laboratories, Hercules, CA, USA). […] Kinetic parameters were determined by analyzing the data using BIAevaluation 4.1 software (GE Healthcare, Little Chalfont, UK).

[1] = test system: FAK phosphorylation (Y397, Y925) in A549 cells; test: FAK phosphorylation level in A549, Western blotting; assay type: cell-based, human; conditions: A549, fibronectin 10 μg/mL, 1 h treatment
Method: A549 cells were incubated in a serum-free medium for 48 h in 60 mm dishes (IWAKI, Tokyo, Japan). Then 10 μM SQAP, SQMG or SQP was added and incubated for 30 min followed by addition of fibronectin 10 μg/mL (Sigma, St. Louis, MI, USA) and incubation for another 30 min. FAK phosphorylation level was analyzed by Western blotting as described in the next section.
Cells were harvested and solubilized in RIPA buffer (20 mM Tris-HCl, pH 7.5, 1% Sodium deoxycholate, 150 mM NaCl, 5 mM EDTA, 1% Triton X-100, 0.1% SDS, 0.1%, 1 mM PMSF, 1 mM vanadate and 1 μg/mL leupeptin). Protein quantification was determined using the DC protein assay kit (Bio-Rad, Hercules, CA, USA). A total of 15 μg of each protein sample were separated by SDS–PAGE gels and blotted onto polyvinylidene difluoride membranes (Merck, Kenilworth, NJ, US). After blocking for 1 h with Blocking-One (Nacalai Tesque, Kyoto, Japan), proteins were detected by incubating the membranes with the primary antibody at 4 °C overnight (anti-Y397 2:2000, anti-Y925 5:2000 and anti-FAK 0.5:2000) followed by incubation with horseradish peroxidase-conjugated secondary antibodies at room temperature for 1 h (anti-mouse 0.5:2000 and anti-rabbit 0.4:2000).

T1 sequence (P51659 598-736): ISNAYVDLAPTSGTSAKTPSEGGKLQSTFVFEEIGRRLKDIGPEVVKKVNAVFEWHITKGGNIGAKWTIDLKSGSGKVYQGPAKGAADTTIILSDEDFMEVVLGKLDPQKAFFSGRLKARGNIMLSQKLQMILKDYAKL

In the case of `CCCCCCCCCCCCCCCCCC(=O)OCCCO[C@H]1O[C@H](CS(=O)(=O)O)[C@@H](O)[C@H](O)[C@H]1O` [SQAP, sulfoquynovosylacylpropanediol], the Kd (MFE-2 (598–736)) is reported as 14.2 µM and the “phosphorylation of FAK at Y397 and Y925” value [1] is reported as “could inhibit”.
